According to ChEMBL document CHEMBL4219169, “Sulfoximines as potent RORγ inverse agonists” (Bioorg Med Chem Lett, 2018):
Converted amounts (≈) assume the structure as drawn.

Columns and labels:
TK6 [1] = experiment: Genotoxicity in human-derived p53-competent TK6 cells expressing GADD45a-dependent green fluorescent protein assessed as decrease in cell viability after 48 hrs in presence of Sprague-Dawley rat S9 fraction by FACS analysis; assay type: toxicity, cell-based; settings: s9, 48 h
[2] = Solubility of the compound in PG/EtOH96 (3/7) solution incubated for 24 hrs by UV spectrometry; assay type: physicochemical
TK6 [3] = experiment: Genotoxicity in human TK6 cells incubated for 3 hrs in presence of aroclor-1254-induced rat S9 fraction followed by 27 hrs recovery period by Giemsa staining dependent optical microscopy based micronucleus test; assay type: toxicity, cell-based; settings: s9, 3 h
TK6 [4] = experiment: Genotoxicity in human TK6 cells incubated for 27 hrs in absence of aroclor-1254-induced rat S9 fraction by Giemsa staining dependent optical microscopy based micronucleus test; assay type: toxicity, cell-based; settings: tk6, 27 h
Mus musculus = experiment: In vivo inverse agonist activity at RORgamma in wild type BALB/c ByJ Rj mouse model of imiquimod-induced skin inflammation model assessed as attenuation of imiquimod-induced epidermal hyperplasia at 0.5 to 6% administered topically twice daily for 7 days dosed 2 hrs before and 6 hrs after imiquimod administration measured on day 8 by hematoxylin and eosin staining-based histological analysis; assay type: functional, organism-based
[5] = molecular target: T1, Oxysterols receptor LXR-beta (Homo sapiens, UniProt P55055)
T1 sequence (P55055 whole entry): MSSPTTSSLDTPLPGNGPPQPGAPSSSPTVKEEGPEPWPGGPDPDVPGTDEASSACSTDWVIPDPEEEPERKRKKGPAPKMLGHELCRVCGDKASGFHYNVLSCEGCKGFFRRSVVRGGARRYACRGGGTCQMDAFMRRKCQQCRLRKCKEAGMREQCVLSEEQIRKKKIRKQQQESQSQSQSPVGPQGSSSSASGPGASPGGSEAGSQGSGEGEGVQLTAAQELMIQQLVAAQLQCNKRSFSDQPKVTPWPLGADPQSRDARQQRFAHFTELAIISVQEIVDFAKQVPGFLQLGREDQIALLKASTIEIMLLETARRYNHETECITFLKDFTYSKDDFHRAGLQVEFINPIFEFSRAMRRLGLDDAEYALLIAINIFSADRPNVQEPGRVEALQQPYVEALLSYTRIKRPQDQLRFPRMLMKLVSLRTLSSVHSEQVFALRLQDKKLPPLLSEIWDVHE
Description: Activity at LXRbeta (unknown origin) expressed in human HeLa-derived HG5LN cells transfected with the GAL4 DNA-binding domain fused to the LXRbeta ligand-binding domain assessed as inhibition of transcriptional activity after 18 hrs by luminescence-based luciferase reporter gene assay

[6] = Stability of the compound in PG/EtOH96 (3/7) solution at 40 degC after 1 month by HPLC analysis; assay type: physicochemical; settings: read-out: Stability
[7] = Fraction unbound in human plasma at 5 uM incubated for 4 hrs at 37 degC by LC-MS/MS method; assay type: ADME, cell-free

solubility at 24 h [2]: 31 mM (≈ 15.8 mg/mL) | Kd [5]: > 10 µM | remaining at 730.5 h [6]: > 98% | fraction unbound at 4 h, 5 µM [7]: 0.048
Structure (SMILES): CCc1ccc(N(CC(C)C)S(=O)(=O)c2ccc(OCC3CCOCC3)c([S@@](C)(=N)=O)c2)cc1
Activity (TK6 [1]): Non-Toxic | Activity (TK6 [3]): Non-Toxic | Activity (TK6 [4]): Non-Toxic | Activity (Mus musculus): Dose-dependent effect
